Experimental data from ChEMBL document CHEMBL6074631, “Design, synthesis, and evaluation of pyranochromene derivatives as membrane targeting antibacterials against Gram-positive bacteria” (Bioorg Med Chem Lett, 2024).
≈ marks a conversion by molar mass, not a printed value. Calls of active or inactive are those of the source. The calls are words filed in the database; no cut-off is given here.

How the values were obtained:
Staphylococcus aureus [1] = test: Antibacterial activity against Staphylococcus aureus ATCC25923 assessed as reduction in bacterial growth by broth microdilution assay; assay type: functional
Klebsiella pneumoniae = test: Antibacterial activity against erythromycin-susceptible Klebsiella pneumoniae ATCC10031 assessed as reduction in bacterial growth by broth microdilution assay; assay type: functional
[2] = system: Staphylococcus epidermidis; test: Antibacterial activity against vancomycin-susceptible Staphylococcus epidermidis ATCC12228 assessed as reduction in bacterial growth by broth microdilution assay; assay type: functional
Pseudomonas aeruginosa = test: Antibacterial activity against penicillin-susceptible Pseudomonas aeruginosa ATCC27853 assessed as reduction in bacterial growth by broth microdilution assay; assay type: functional
Bacillus subtilis = test: Antibacterial activity against […] Bacillus subtilis ATCC9372 assessed as reduction in bacterial growth by broth microdilution assay; assay type: functional
Escherichia coli = test: Antibacterial activity against Escherichia coli ATCC25922 assessed as reduction in bacterial growth by broth microdilution assay; assay type: functional
Enterococcus faecalis = test: Antibacterial activity against penicillin-susceptible Enterococcus faecalis ATCC29212 assessed as reduction in bacterial growth by broth microdilution assay; assay type: functional
Staphylococcus aureus [3] = test: Antibacterial activity against Staphylococcus aureus ATCC31007 assessed as reduction in bacterial growth by broth microdilution assay; assay type: functional
Acinetobacter baumannii = test: Antibacterial activity against Acinetobacter baumannii ATCC19606 assessed as reduction in bacterial growth by broth microdilution assay; assay type: functional
Staphylococcus aureus [4] = test: Antibacterial activity against […] Staphylococcus aureus ATCC43300 assessed as reduction in bacterial growth by broth microdilution assay; assay type: functional
Cell membrane [5] = test: Disruption of cell membrane integrity in Staphylococcus aureus ATCC43300 assessed as red fluorescence by DAPI staining based fluorescence assay; assay type: subcellular
Cell membrane [6] = test: Disruption of cell membrane integrity in Staphylococcus aureus ATCC43300 assessed as blue fluorescence by DAPI staining based fluorescence assay; assay type: subcellular
[7] = Hemolytic activity in RBC (unknown origin) assessed as hemolysis; assay type: toxicity, cell-based

Compound	MIC (Staphylococcus aureus [1])	MIC (Klebsiella pneumoniae)	MIC [2]	MIC (Pseudomonas aeruginosa)	MIC (Bacillus subtilis)	MIC (Escherichia coli)	MIC (Enterococcus faecalis)	MIC (Staphylococcus aureus [3])	MIC (Acinetobacter baumannii)	MIC (Staphylococcus aureus [4])	Activity (Cell membrane [5])	Activity (Cell membrane [6])	HC90 ([7]; rbc)	HC50 ([7]; red blood cells)
COc1c2c(c3c(c1C(=O)/C=C/c1ccc(OCCCN(CCCN(C)C)CCCN(C)C)cc1)OC(C)(CCC=C(C)C)C=C3)OC(C)(CCC=C(C)C)C=C2 (stereo not given)	8 µg/mL (≈ 10.2 µM)	> 128 µg/mL	2 µg/mL (≈ 2.56 µM)	> 128 µg/mL	8 µg/mL (≈ 10.2 µM)	> 128 µg/mL	8 µg/mL (≈ 10.2 µM)	8 µg/mL (≈ 10.2 µM)	> 128 µg/mL	8 µg/mL (≈ 10.2 µM)	–	–	–	–
CC[C@H](C)[C@H](NC(=O)CN)C(=O)NCC(=O)N[C@@H](C)C(=O)N[C@H](C(=O)N[C@@H](CC(C)C)C(=O)N[C@@H](CCCCN)C(=O)N[C@H](C(=O)N[C@@H](CC(C)C)C(=O)N[C@H](C(=O)N[C@H](C(=O)NCC(=O)N[C@@H](CC(C)C)C(=O)N1CCC[C@H]1C(=O)N[C@@H](C)C(=O)N[C@@H](CC(C)C)C(=O)N[C@H](C(=O)N[C@@H](CO)C(=O)N[C@@H](Cc1c[nH]c2ccccc12)C(=O)N[C@H](C(=O)N[C@@H](CCCCN)C(=O)N[C@@H](CCCNC(=N)N)C(=O)N[C@@H](CCCCN)C(=O)N[C@@H](CCCNC(=N)N)C(=O)N[C@@H](CCC(N)=O)C(=O)N[C@@H](CCC(N)=O)C(N)=O)[C@@H](C)CC)[C@@H](C)CC)[C@@H](C)O)[C@@H](C)O)C(C)C)C(C)C	–	–	–	–	–	–	–	–	–	–	Active	Active	–	–
COc1c2c(c3c(c1C(=O)/C=C/c1ccc(OCCCN4CCOCC4)cc1)OC(C)(CCC=C(C)C)C=C3)OC(C)(CCC=C(C)C)C=C2 (stereo not given)	> 128 µg/mL	> 128 µg/mL	> 128 µg/mL	> 128 µg/mL	> 128 µg/mL	> 128 µg/mL	> 128 µg/mL	> 128 µg/mL	> 128 µg/mL	> 128 µg/mL	–	–	–	–
CN[C@H](CC(C)C)C(=O)N[C@H]1C(=O)N[C@@H](CC(N)=O)C(=O)N[C@H]2C(=O)N[C@H]3C(=O)N[C@H](C(=O)N[C@H](C(=O)O)c4cc(O)cc(O)c4-c4cc3ccc4O)[C@H](O)c3ccc(c(Cl)c3)Oc3cc2cc(c3O[C@@H]2O[C@H](CO)[C@@H](O)[C@H](O)[C@H]2O[C@H]2C[C@](C)(N)[C@H](O)[C@H](C)O2)Oc2ccc(cc2Cl)[C@H]1O [VANCOMYCIN]	–	128 µg/mL (≈ 88.3 µM)	–	> 128 µg/mL	0.5 µg/mL (≈ 0.345 µM)	128 µg/mL (≈ 88.3 µM)	2 µg/mL (≈ 1.38 µM)	–	16 µg/mL (≈ 11 µM)	–	–	–	–	–
COc1c2c(c3c(c1C(=O)/C=C/c1ccc(OCCCN4CCSCC4)cc1)OC(C)(CCC=C(C)C)C=C3)OC(C)(CCC=C(C)C)C=C2 (stereo not given)	> 128 µg/mL	> 128 µg/mL	> 128 µg/mL	> 128 µg/mL	> 128 µg/mL	> 128 µg/mL	> 128 µg/mL	> 128 µg/mL	> 128 µg/mL	> 128 µg/mL	–	–	–	–
CC[N+](CC)(CC)CCCOc1ccc(/C=C/C(=O)c2c(OC)c3c(c4c2OC(C)(CCC=C(C)C)C=C4)OC(C)(CCC=C(C)C)C=C3)cc1 (stereo not given)	64 µg/mL	> 128 µg/mL	4 µg/mL	> 128 µg/mL	64 µg/mL	> 128 µg/mL	32 µg/mL	64 µg/mL	> 128 µg/mL	> 128 µg/mL	–	–	–	–
CC(=O)c1c(OCC(=O)NCCCN2CCCC2)c2c(c3c1OC(C)(CCC=C(C)C)C=C3)OC(C)(CCC=C(C)C)C=C2 (stereo not given)	4 µg/mL (≈ 6.61 µM)	> 128 µg/mL	8 µg/mL (≈ 13.2 µM)	> 128 µg/mL	16 µg/mL (≈ 26.5 µM)	> 128 µg/mL	8 µg/mL (≈ 13.2 µM)	4 µg/mL (≈ 6.61 µM)	128 µg/mL (≈ 212 µM)	4 µg/mL (≈ 6.61 µM)	–	–	–	–
CCNCCCOc1ccc(/C=C/C(=O)c2c(OC)c3c(c4c2OC(C)(CCC=C(C)C)C=C4)OC(C)(CCC=C(C)C)C=C3)cc1 (stereo not given)	> 128 µg/mL	> 128 µg/mL	> 128 µg/mL	128 µg/mL (≈ 200 µM)	128 µg/mL (≈ 200 µM)	> 128 µg/mL	> 128 µg/mL	> 128 µg/mL	128 µg/mL (≈ 200 µM)	> 128 µg/mL	–	–	–	–
COc1c2c(c3c(c1C(=O)/C=C/c1ccc(OCCCNCCCN4CCN(C)CC4)cc1)OC(C)(CCC=C(C)C)C=C3)OC(C)(CCC=C(C)C)C=C2 (stereo not given)	4 µg/mL (≈ 5.32 µM)	> 128 µg/mL	4 µg/mL (≈ 5.32 µM)	> 128 µg/mL	4 µg/mL (≈ 5.32 µM)	> 128 µg/mL	8 µg/mL (≈ 10.6 µM)	4 µg/mL (≈ 5.32 µM)	> 128 µg/mL	8 µg/mL (≈ 10.6 µM)	–	–	–	–
CC(=O)c1c(OCC(=O)N(C)CCCN(C)C)c2c(c3c1OC(C)(CCC=C(C)C)C=C3)OC(C)(CCC=C(C)C)C=C2 (stereo not given)	4 µg/mL (≈ 6.75 µM)	> 128 µg/mL	2 µg/mL (≈ 3.37 µM)	128 µg/mL (≈ 216 µM)	2 µg/mL (≈ 3.37 µM)	> 128 µg/mL	2 µg/mL (≈ 3.37 µM)	4 µg/mL (≈ 6.75 µM)	128 µg/mL (≈ 216 µM)	4 µg/mL (≈ 6.75 µM)	–	–	–	–
COc1c2c(c3c(c1C(=O)/C=C/c1ccc(OCCC[N+](C)(C)CCCN(C)C)cc1)OC(C)(CCC=C(C)C)C=C3)OC(C)(CCC=C(C)C)C=C2 (stereo not given)	4 µg/mL	> 128 µg/mL	2 µg/mL	> 128 µg/mL	4 µg/mL	> 128 µg/mL	16 µg/mL	32 µg/mL	32 µg/mL	16 µg/mL	–	–	–	–
COc1c2c(c3c(c1C(=O)/C=C/c1ccc(OCCCN(C)CCCN(C)C)cc1)OC(C)(CCC=C(C)C)C=C3)OC(C)(CCC=C(C)C)C=C2 (stereo not given)	> 128 µg/mL	> 128 µg/mL	2 µg/mL (≈ 2.81 µM)	> 128 µg/mL	> 128 µg/mL	> 128 µg/mL	16 µg/mL (≈ 22.5 µM)	> 128 µg/mL	> 128 µg/mL	> 128 µg/mL	–	–	–	–
COc1c2c(c3c(c1C(=O)/C=C/c1ccc(OCCC[N+](C)(C)CCCN)cc1)OC(C)(CCC=C(C)C)C=C3)OC(C)(CCC=C(C)C)C=C2 (stereo not given)	16 µg/mL	> 128 µg/mL	4 µg/mL	> 128 µg/mL	8 µg/mL	> 128 µg/mL	> 128 µg/mL	8 µg/mL	> 128 µg/mL	32 µg/mL	–	–	–	–
CNCCN(C)C(=O)COc1c2c(c3c(c1C(C)=O)OC(C)(CCC=C(C)C)C=C3)OC(C)(CCC=C(C)C)C=C2 (stereo not given)	4 µg/mL (≈ 7.08 µM)	128 µg/mL (≈ 227 µM)	4 µg/mL (≈ 7.08 µM)	128 µg/mL (≈ 227 µM)	16 µg/mL (≈ 28.3 µM)	> 128 µg/mL	8 µg/mL (≈ 14.2 µM)	4 µg/mL (≈ 7.08 µM)	128 µg/mL (≈ 227 µM)	4 µg/mL (≈ 7.08 µM)	–	–	–	–
CC(=O)c1c(OCC(=O)NCCCN2CCN(C)CC2)c2c(c3c1OC(C)(CCC=C(C)C)C=C3)OC(C)(CCC=C(C)C)C=C2 (stereo not given)	2 µg/mL (≈ 3.16 µM)	> 128 µg/mL	1 µg/mL (≈ 1.58 µM)	> 128 µg/mL	2 µg/mL (≈ 3.16 µM)	> 128 µg/mL	0.5 µg/mL (≈ 0.789 µM)	2 µg/mL (≈ 3.16 µM)	128 µg/mL (≈ 202 µM)	4 µg/mL (≈ 6.31 µM)	–	–	137.3 µg/mL	46 µg/mL
CCCCN(CCCC)CCCNC(=O)COc1c2c(c3c(c1C(C)=O)OC(C)(CCC=C(C)C)C=C3)OC(C)(CCC=C(C)C)C=C2 (stereo not given)	4 µg/mL (≈ 6.03 µM)	> 128 µg/mL	4 µg/mL (≈ 6.03 µM)	> 128 µg/mL	8 µg/mL (≈ 12.1 µM)	> 128 µg/mL	4 µg/mL (≈ 6.03 µM)	4 µg/mL (≈ 6.03 µM)	> 128 µg/mL	8 µg/mL (≈ 12.1 µM)	–	–	–	–
CCN(CC)CCCNC(=O)COc1c2c(c3c(c1C(C)=O)OC(C)(CCC=C(C)C)C=C3)OC(C)(CCC=C(C)C)C=C2 (stereo not given)	4 µg/mL (≈ 6.59 µM)	> 128 µg/mL	2 µg/mL (≈ 3.3 µM)	128 µg/mL (≈ 211 µM)	2 µg/mL (≈ 3.3 µM)	> 128 µg/mL	2 µg/mL (≈ 3.3 µM)	4 µg/mL (≈ 6.59 µM)	> 128 µg/mL	4 µg/mL (≈ 6.59 µM)	–	–	–	–
CCN(CC)CCCNCCCOc1ccc(/C=C/C(=O)c2c(OC)c3c(c4c2OC(C)(CCC=C(C)C)C=C4)OC(C)(CCC=C(C)C)C=C3)cc1 (stereo not given)	16 µg/mL (≈ 22.1 µM)	> 128 µg/mL	4 µg/mL (≈ 5.52 µM)	> 128 µg/mL	8 µg/mL (≈ 11 µM)	> 128 µg/mL	32 µg/mL (≈ 44.1 µM)	32 µg/mL (≈ 44.1 µM)	> 128 µg/mL	16 µg/mL (≈ 22.1 µM)	–	–	–	–
